{
  "source": "patent US20100047374A1",
  "about": "“COMPOSITION FOR PROTECTING MUSCLE DAMAGE” (priority 2007, published 2010)",
  "key": {"IL-6": {"system": "IL-6", "experiment": "Muscle damage-protecting effect using myotube cell: IL-6 gene expression by quantitative real time PCR after H2O2 treatment", "assay_type": "cell-based, mouse", "conditions": "C2C12 myotube cell, 10 μg/ml for 24 hours, then 1 mM H2O2 for 2 hours, relative to GAPDH, compared to hydrogen peroxide group, FIGS. 3 and 4", "procedure": "(§1) In this evaluation system, the C2C12 myoblast cell line derived from a mouse was used. The cell line is preserved in RIKEN BIORESOURCE CENTER, Japan, and the cell line can be shared. The cell is differentiated from a mononuclear myoblast cell into a maltinuclear myotube cell by differentiation induction, to thereby have a muscle fiber-like form. The cell was seeded in a collagen I-coated 35-mm dish and cultured in DMEM (11965-092, manufactured by GIBCO)+10% FBS (hereinafter, may be referred to as a growth medium) at 37° C. under 5% CO2 until the culture had 90% confluence. […] The concentration of the purified total RNA was determined based on the measurement results of the absorbance (260 nm, 280 nm). […] A quantitative real time PCR was performed by using the obtained cDNA. In the quantitative real time PCR, qPCR super mix-UDG with ROX was used as a reaction reagent, as primers for IL-6 and CXCL-1, Mm00446190 (manufactured by AB Corporation) and Mm00433859 (manufactured by AB Corporation) were used, respectively, and as a primer for […] (hereinafter, may be referred to as GAPDH) which was used as an internal standard, Mm99999915 (manufactured by AB Corporation) was used. […]"}, "CXCL-1": {"system": "CXCL-1", "experiment": "Muscle damage-protecting effect using myotube cell: CXCL-1 gene expression by quantitative real time PCR after H2O2 treatment", "assay_type": "cell-based, mouse", "conditions": "C2C12 myotube cell, 10 μg/ml for 24 hours, then 1 mM H2O2 for 2 hours, relative to GAPDH, compared to hydrogen peroxide group, FIG. 4", "procedure": "as §1"}},
  "data": [
    {"smiles": "CCCCCCCCCCCCCCC[C@@H](O)[C@@H](N)CO", "note": "(single isomer, unassigned) [sphinganine]", "values": [
      {"measurement": "gene expression of IL-6", "setting": "IL-6", "value": "effect of inhibiting"},
      {"measurement": "gene expression of CXCL-1", "setting": "CXCL-1", "value": "effect of inhibiting"}
    ]}
  ]
}
